The test system of one assay is A375. Kind of assay: Photo- and cytotoxic activity determination (MTT), A375 cells. Format: cell-based, human. The note with it: normoxia; for A375 PI (phototherapeutic index), IC50 dark/IC50 irradiated: 520 nm, dark tested up to 100 μM; for IC50: 48 h drug-free medium. The text has this:
(§1) Having shown that the Ir(III)-COUPY conjugates can sensitize both type I and II ROS through spectroscopic techniques and readily internalize into living cells, their photocytotoxicity was screened in various cancer cell lines. This screening included two representative melanoma cell lines (human A375 and […] human SK-MEL-28) and cancer cells with resistance to the clinical drug cisplatin. For the latter, both sensitive and cisplatin-resistant ovarian cancer cells (A2780 and A2780cis) as well as HeLa cells, which also show a degree of chemoresistance to the platinum anticancer drug in vitro,[54] were used. For the determination of dark and light cytotoxicity, dose–response curves were assayed from both conditions to provide the correspondent IC50 values, which correspond to the concentration needed for inhibition of cell growth by 50%. Phototherapeutic index (PI) was calculated as the ratio of dark to light IC50 value for each compound.
(§2) A375, HeLa, and SK-MEL-28 cells were cultured in Dulbecco’s modified Eagle medium (DMEM) supplemented with 10% FBS, L-glutamine, and 1% penicillin–streptomycin. A2780 and A2780cis cells were grown in RPMI-1640 cell medium supplemented with 10% fetal bovine serum (FBS) and 2 mM L-glutamine. Acquired resistance to cisplatin in the A2780cis cell line was maintained by adding cisplatin 1 μM to culture medium every second passage. Cells were cultured in a humidified incubator at 310 K with 5% CO2 atmosphere and subcultured two or three times a week with appropriate densities and were confirmed to be mycoplasma-free using a standard Hoechst DNA staining method.
(§3) A2780, A2780cis, HeLa, A375, and SK-MEL-28 cells were maintained at logarithmic growth-phase and cultured in 96-well plates at a density of 5000 cells/well in complete medium for 24 h at 310 K, 5% CO2 in a humidified incubator. For hypoxia experiments, a hypoxia condition was set up by Tissue Culture Service at University of Murcia using nitrogen (N2) to displace O2 down to a minimum of 2% in a Forma Steri-Cycle i160 incubator (Thermo Fisher Scientific). Serial dilutions of the compounds were added at the final concentrations in the range of 0–100 μM in a final volume of 100 μL per well. A light-based treatment schedule was performed as follows: 1 h incubation with the compounds in the dark, followed by 1 h incubation under irradiation conditions by placing the Photoreactor EXPO-LED from Luzchem (Canada) fitted with green lamps (final light intensity applied of 1.5 mW/cm^2 at λmax = 520 nm) inside the CO2 incubator. All the cell culture plates subjected to light irradiation included untreated controls to verify that cell viability was not affected by light. Then, treatment-containing media was removed, and fresh media was added for a 48 h cell recovery period; the temperature throughout the experiment remained at 310 K. Dark control samples were placed in the same dark conditions and then kept incubated for 1 h in the dark in the humidified CO2 incubator. Medium was then aspirated by suction, cells were loaded with 50 μL of MTT solution (1 mg/mL) for additional 4 h and then removed, and 50 μL of DMSO was added to solubilize the purple formazan crystals formed in active cells. The absorbance was measured at 570 nm using a microplate reader (FLUOstar Omega), and the IC50 values were calculated based on the inhibitory rate curves using the following equation [drawing 4] 4 where I represents the percentage inhibition of viability observed, Imax is the maximal inhibitory effect, IC50 is the concentration that inhibits 50% of maximal growth, C is the concentration of the treatment, and n is the slope of the semi-logarithmic dose–response sigmoidal curves. The non-linear fitting was performed using SigmaPlot 14.0 software. All experiments were performed in three independent studies with n = 3 replicates per concentration level. For a detailed phototoxicity procedure, ref ([43]) includes technical explanations.

The subject of a further assay is HeLa. Kind of assay: Photo- and cytotoxic activity determination (MTT), HeLa cells. Format: cell-based. The following applies: normoxia; for HeLa PI (phototherapeutic index), IC50 dark/IC50 irradiated: 520 nm, dark tested up to 100 μM; for IC50: 48 h drug-free medium.
Source text: as §1, §2, §3

A further assay has as its system SK-MEL-28. Kind of assay: Photo- and cytotoxic activity determination (MTT), SK-MEL-28 cells. The format is cell-based, human. The following applies: normoxia; for SK-MEL-28 PI (phototherapeutic index), IC50 dark/IC50 irradiated: 520 nm, dark tested up to 100 μM; for IC50: 48 h drug-free medium.
Source text: as §1, §2, §3

The subject of the next assay is A2780cis cells. Kind of assay: Photo- and cytotoxic activity determination (MTT), A2780cis cells, normoxia or hypoxia. The format is cell-based. The following applies: for Partial inhibition (% of cell growth inhibition with respect to untreated controls), Hypoxia / Partial inhibition (% of cell growth inhibition with respect to untreated controls), Normoxia: 250 μM, 2 h incubation in the dark, 48 h drug-free recovery; for Hypoxia PI (phototherapeutic index) / Normoxia PI (phototherapeutic index): dark tested up to 250 μM; for A2780cis PI (phototherapeutic index), IC50 dark/IC50 irradiated: dark tested up to 100 μM; for PI (phototherapeutic index), blue light: 465 nm.
Source text: as §1, §2
as §3, with “Serial dilutions of the compounds were added at the final concentrations in the range of 0–100 μM in a final volume of 100 μL per well.” left out

Setting [1] is: 1 h incubation + 1 h green light 520 nm, 1.5 mW cm^–2, read-out: A375 light IC50.
The mark [2] stands for this setting: kept in the dark, 2 h treatment, read-out: A375 dark IC50.
[3] abbreviates: 1 h incubation + 1 h green light 520 nm, 1.5 mW cm^–2, read-out: HeLa light IC50.
Where [4] appears, read: kept in the dark, 2 h treatment, read-out: HeLa dark IC50.
The mark [5] stands for this setting: 1 h incubation + 1 h green light 520 nm, 1.5 mW cm^–2, read-out: SK-MEL-28 light IC50.
Setting [6] is: kept in the dark, 2 h treatment, read-out: SK-MEL-28 dark IC50.
Setting [7] is: A2780cis, hypoxia 2% O2, 520 nm.
Where [8] appears, read: A2780cis, hypoxia 2% O2, dark, tested up to 250 μM, read-out: Hypoxia Dark IC50.
Setting [9] is: A2780cis, normoxia 21% O2, 520 nm.
Setting [10] is: A2780cis, normoxia 21% O2, dark, tested up to 250 μM, read-out: Normoxia Dark IC50.
[11] abbreviates: hypoxia, 520 nm, read-out: A2780cis Light 520 nm IC50 (microM) Hypoxia.
[12] abbreviates: hypoxia, dark, read-out: A2780cis Dark IC50 (microM) Hypoxia.
Setting [13] is: normoxia, 1 h incubation + 1 h green light 520 nm, 1.5 mW cm^–2, 48 h drug-free medium, read-out: A2780cis light IC50.
The mark [14] stands for this setting: normoxia, dark, up to 250 microM, read-out: A2780cis Dark IC50 (microM) Normoxia.
Where [15] appears, read: normoxia, kept in the dark, tested up to 100 μM, 2 h treatment, 48 h drug-free medium, read-out: A2780cis dark IC50.
[16] abbreviates: A2780cis, 1 h incubation + 1 h blue light 465 nm, 5 mW/cm2, 48 h drug-free, read-out: 465 nm IC50.

The structures appear in SMILES notation. Where “and” joins values, the source holds several entries; their conditions need not be identical. Equal values may be shown once. Read-outs that look alike come from different tables or passages of the source. Bounds are passed on as bounds.

Turning to `CCCCn1c2[n+](c3cc(C(=O)OC)ccc31)[Ir-3]13([c]4ccccc4-c4[nH]c5ccccc5[n+]41)([c]1ccccc1-c1[nH]c4ccccc4[n+]13)[n+]1c-2ccc2ccccc21` [2a], the “A375 PI (phototherapeutic index), IC50 dark/IC50 irradiated” value (“A375 PI (phototherapeutic index)” below) in the assay with A375 is reported as above 48. Moreover, the IC50 (in general, the concentration that inhibits the measured activity by half) was 2.1 ± 0.3 µM in the assay on A375 (setting [1]); above 100 µM in the assay on A375 (setting [2]); 75 ± 6 µM with HeLa (setting [3]); above 100 µM in the assay with HeLa (setting [4]); 2.8 ± 0.3 µM in the assay with SK-MEL-28 (setting [5]); above 100 µM in the assay on SK-MEL-28 (setting [6]). Moreover, the IC50 in the assay with A2780cis cells (setting [8]) is above 250 µM; in the assay on A2780cis cells (setting [10]), above 250 µM; in the assay with A2780cis cells (setting [11]), 11 ± 2 µM; in the assay on A2780cis cells (setting [12]), above 250 µM; in the assay with A2780cis cells (setting [13]), 3.5 ± 0.4 µM; in the assay on A2780cis cells (setting [14]) it was above 250 µM. Further, in the assay on A2780cis cells (setting [15]), the IC50 was above 100 µM. Moreover, the “HeLa PI (phototherapeutic index), IC50 dark/IC50 irradiated” value (from here on “HeLa PI (phototherapeutic index)”) in the assay with HeLa is recorded as above 1.3. For the same molecule, the “SK-MEL-28 PI (phototherapeutic index), IC50 dark/IC50 irradiated” value (shortened to “SK-MEL-28 PI (phototherapeutic index)”) in the assay with SK-MEL-28 was above 36. Further, the “Partial inhibition (% of cell growth inhibition with respect to untreated controls), Hypoxia” value in the assay on A2780cis cells (A2780cis, hypoxia) worked out at 56 ± 6%. Also, the “Partial inhibition (% of cell growth inhibition with respect to untreated controls), Normoxia” value with A2780cis cells (A2780cis, normoxia) is recorded as 62 ± 4%. The “Hypoxia PI (phototherapeutic index)” value in the assay with A2780cis cells (setting [7]) is given as above 22.7. Moreover, in the assay on A2780cis cells (setting [9]), the “Normoxia PI (phototherapeutic index)” value is given as above 71.4. In the assay on A2780cis cells (normoxia, 520 nm), the “A2780cis PI (phototherapeutic index), IC50 dark/IC50 irradiated” value (“A2780cis PI (phototherapeutic index)” for short) was above 29.

Take `CCCCn1c2[n+](c3cc(C(=O)NCCCNC(=O)C[n+]4ccc(/C(C#N)=C5/C=C(C)c6ccc(N(CC)CC)cc6O5)cc4)ccc31)[Ir-3]13([c]4ccccc4-c4[nH]c5ccccc5[n+]41)([c]1ccccc1-c1[nH]c4ccccc4[n+]13)[n+]1c-2ccc2ccccc21` [3a]: the “A375 PI (phototherapeutic index)” value in the assay on A375 is given as above 6. Further, the IC50 was 18 ± 3 µM with A375 (setting [1]); above 100 µM with A375 (setting [2]); 8.6 ± 0.7 µM in the assay with HeLa (setting [3]); above 100 µM with HeLa (setting [4]); 1.5 ± 0.1 µM in the assay on SK-MEL-28 (setting [5]); above 100 µM with SK-MEL-28 (setting [6]). Further, the IC50 is 1.9 µM with A2780cis cells (setting [16]); above 250 µM with A2780cis cells (setting [8]); above 250 µM with A2780cis cells (setting [10]); 3.8 ± 0.3 µM in the assay on A2780cis cells (setting [11]); above 250 µM with A2780cis cells (setting [12]); 0.7 ± 0.06 µM in the assay with A2780cis cells (setting [13]). Further, the IC50 in the assay with A2780cis cells (setting [14]) was above 250 µM; in the assay on A2780cis cells (setting [15]), above 100 µM. Also, the “HeLa PI (phototherapeutic index)” value in the assay with HeLa is recorded as above 12. Moreover, in the assay on SK-MEL-28, the “SK-MEL-28 PI (phototherapeutic index)” value is above 67. In addition, the “Partial inhibition (% of cell growth inhibition with respect to untreated controls), Hypoxia” value with A2780cis cells (A2780cis, hypoxia) came out at 49 ± 4%. The “Partial inhibition (% of cell growth inhibition with respect to untreated controls), Normoxia” value in the assay on A2780cis cells (A2780cis, normoxia) is reported as 58 ± 7%. Further, in the assay on A2780cis cells (A2780cis), the “PI (phototherapeutic index), blue light” value is reported as above 52.6. Also, the “Hypoxia PI (phototherapeutic index)” value in the assay on A2780cis cells (setting [7]) is > 65.8 and > 66. The “Normoxia PI (phototherapeutic index)” value in the assay with A2780cis cells (setting [9]) was > 357.1 and > 357. Further, the “A2780cis PI (phototherapeutic index)” value in the assay on A2780cis cells (normoxia, 520 nm) is listed as above 143.

`CCCCn1c2[n+](c3cc(C(=O)NCCCNC(=O)C[n+]4ccc(/C(C#N)=C5/C=C(C)c6ccccc6O5)cc4)ccc31)[Ir-3]13([c]4ccccc4-c4[nH]c5ccccc5[n+]41)([c]1ccccc1-c1[nH]c4ccccc4[n+]13)[n+]1c-2ccc2ccccc21` [3b]: the “A375 PI (phototherapeutic index)” value in the assay with A375 was above 1.3. The IC50 was 78 ± 6 µM with A375 (setting [1]); above 100 µM in the assay with A375 (setting [2]); 18 ± 2 µM in the assay with HeLa (setting [3]); above 100 µM in the assay on HeLa (setting [4]); 2.1 ± 0.2 µM in the assay on SK-MEL-28 (setting [5]); above 100 µM in the assay with SK-MEL-28 (setting [6]). The IC50 was 2.4 µM in the assay on A2780cis cells (setting [16]); 31 µM in the assay on A2780cis cells (A2780cis, hypoxia 2% O2, 1 h incubation + 1 h green light 520 nm, 48 h drug-free, read-out: Hypoxia 520 nm IC50); above 250 µM with A2780cis cells (setting [8]); above 250 µM with A2780cis cells (setting [10]); above 250 µM with A2780cis cells (setting [12]); 61 ± 8 µM in the assay with A2780cis cells (setting [13]). For the same molecule, the results for the IC50 in the assay on A2780cis cells (setting [14]) and with A2780cis cells (setting [15]) were above 250 µM and above 100 µM, respectively. Further, in the assay with HeLa, the “HeLa PI (phototherapeutic index)” value is above 6. In addition, in the assay on SK-MEL-28, the “SK-MEL-28 PI (phototherapeutic index)” value is given as above 48. In addition, the “Partial inhibition (% of cell growth inhibition with respect to untreated controls), Hypoxia” value in the assay on A2780cis cells (A2780cis, hypoxia) turned out to be 45 ± 6%. In addition, the “Partial inhibition (% of cell growth inhibition with respect to untreated controls), Normoxia” value in the assay with A2780cis cells (A2780cis, normoxia) turned out to be 63 ± 5%. In addition, the “PI (phototherapeutic index), blue light” value in the assay on A2780cis cells (A2780cis) is given as above 41.7. For the same molecule, the “Hypoxia PI (phototherapeutic index)” value with A2780cis cells (setting [7]) was above 8.1. In the assay on A2780cis cells (setting [9]), the “Normoxia PI (phototherapeutic index)” value is given as above 4.1. For the same molecule, in the assay with A2780cis cells (normoxia, 520 nm), the “A2780cis PI (phototherapeutic index)” value is above 1.6.

(Values after publication PMC10291553, “Exploring Structure–Activity Relationships in Photodynamic Therapy Anticancer Agents Based on Ir(III)-COUPY Conjugates” (Journal of Medicinal Chemistry, 2023).)
